Source: PubChem BioAssay AID2060513 (Molecular Pharmacology Branch, DTP, NCI, 2025)

Tested on: 299254-011-R-J1-PDC complex spheroids viability
Assay: Anticancer human tumor 299254-011-R-J1-PDC patient-derived melanoma cell line growth inhibition [GQUAD]
Details: for IC50: curve of first compound; for viability, T/C: stronger effect = lower value
Procedure, shortened: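 Viability of tumor cells grown as complex spheroids with endothelial and stromal cells, exposed to drug combinations. Top concentration at or near clinical Cmax (else 10 microM), diluted in half-log increments.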

[1] = second compound 0.0316 µM, first compound 0.0316 µM
[2] = second compound 0.0316 µM, first compound 0.1 µM
[3] = second compound 0.0316 µM, first compound 0.316 µM
[4] = second compound 0.0316 µM, first compound 1 µM
[5] = second compound 0.0316 µM, first compound 3.16 µM
[6] = second compound 0.0316 µM, first compound 10 µM
[7] = second compound 0.1 µM, first compound 0.0316 µM
[8] = second compound 0.1 µM, first compound 0.1 µM
[9] = second compound 0.1 µM, first compound 0.316 µM
[10] = second compound 0.1 µM, first compound 1 µM
[11] = second compound 0.1 µM, first compound 3.16 µM
[12] = second compound 0.1 µM, first compound 10 µM
[13] = second compound 0.316 µM, first compound 0.0316 µM
[14] = second compound 0.316 µM, first compound 0.1 µM
[15] = second compound 0.316 µM, first compound 0.316 µM
[16] = second compound 0.316 µM, first compound 1 µM
[17] = second compound 0.316 µM, first compound 3.16 µM
[18] = second compound 0.316 µM, first compound 10 µM
[19] = second compound 1 µM, first compound 0.0316 µM
[20] = second compound 1 µM, first compound 0.1 µM
[21] = second compound 1 µM, first compound 0.316 µM
[22] = second compound 1 µM, first compound 1 µM
[23] = second compound 1 µM, first compound 3.16 µM
[24] = second compound 1 µM, first compound 10 µM
[25] = second compound 3.16 µM, first compound 0.0316 µM
[26] = second compound 3.16 µM, first compound 0.1 µM
[27] = second compound 3.16 µM, first compound 0.316 µM
[28] = second compound 3.16 µM, first compound 1 µM
[29] = second compound 3.16 µM, first compound 3.16 µM
[30] = second compound 3.16 µM, first compound 10 µM
[31] = second compound 10 µM, first compound 0.0316 µM
[32] = second compound 10 µM, first compound 0.1 µM
[33] = second compound 10 µM, first compound 0.316 µM
[34] = second compound 10 µM, first compound 1 µM
[35] = second compound 10 µM, first compound 3.16 µM
[36] = second compound 10 µM, first compound 10 µM
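Note: spheroids exposed to the agents for seven days before readout.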
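Throughout, for viability, T/C: percent viability relative to DMSO vehicle control wells = 100%.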

C#Cc1c(F)ccc2cc(O)cc(-c3ncc4c(N5CC6CCC(C5)N6)nc(OCC56CCCN5CC(F)C6)nc4c3F)c12 (stereo unspecified) + Cc1[nH]c2ccc(F)cc2c1-c1nc2c3cccnc3c3ncccc3c2[nH]1
IC50 (second compound 0.0316 µM): > 10000 nM | IC50 (second compound 0.1 µM): > 10000 nM | IC50 (second compound 0.316 µM): > 10000 nM | IC50 (second compound 1 µM): > 10000 nM | IC50 (second compound 3.16 µM): > 10000 nM | IC50 (second compound 10 µM): > 10000 nM | viability, T/C [1]: 109% | viability, T/C [2]: 102% | viability, T/C [3]: 87.9% | viability, T/C [4]: 102% | viability, T/C [5]: 90.8% | viability, T/C [6]: 72.5% | viability, T/C [7]: 83.1% | viability, T/C [8]: 103% | viability, T/C [9]: 103% | viability, T/C [10]: 100% | viability, T/C [11]: 103% | viability, T/C [12]: 72.9% | viability, T/C [13]: 89.4% | viability, T/C [14]: 102% | viability, T/C [15]: 88.8% | viability, T/C [16]: 86.6% | viability, T/C [17]: 111% | viability, T/C [18]: 75.7% | viability, T/C [19]: 129% | viability, T/C [20]: 95.2% | viability, T/C [21]: 116% | viability, T/C [22]: 104% | viability, T/C [23]: 86.6% | viability, T/C [24]: 80.8% | viability, T/C [25]: 102% | viability, T/C [26]: 112% | viability, T/C [27]: 97.2% | viability, T/C [28]: 88.9% | viability, T/C [29]: 114% | viability, T/C [30]: 91.7% | viability, T/C [31]: 87.2% | viability, T/C [32]: 100% | viability, T/C [33]: 98.4% | viability, T/C [34]: 99.1% | viability, T/C [35]: 105% | viability, T/C [36]: 95.6%

CC(=O)O[C@H]1C(=O)[C@@]2(C)[C@H]([C@H](OC(=O)c3ccccc3)[C@]3(O)C[C@H](OC(=O)[C@H](O)[C@@H](NC(=O)c4ccccc4)c4ccccc4)C(C)=C1C3(C)C)[C@]1(OC(C)=O)CO[C@@H]1C[C@@H]2O + Cc1[nH]c2ccc(F)cc2c1-c1nc2c3cccnc3c3ncccc3c2[nH]1
IC50 (second compound 0.0316 µM): 448 nM | IC50 (second compound 0.1 µM): 274 nM | IC50 (second compound 0.316 µM): 445 nM | IC50 (second compound 1 µM): 506 nM | IC50 (second compound 3.16 µM): 531 nM | IC50 (second compound 10 µM): 405 nM | viability, T/C [1]: 90.7% | viability, T/C [2]: 82% | viability, T/C [3]: 58.2% | viability, T/C [4]: 31.2% | viability, T/C [5]: 18% | viability, T/C [6]: 15.5% | viability, T/C [7]: 86.8% | viability, T/C [8]: 94.6% | viability, T/C [9]: 44.2% | viability, T/C [10]: 35.9% | viability, T/C [11]: 20.7% | viability, T/C [12]: 13.9% | viability, T/C [13]: 104% | viability, T/C [14]: 86.1% | viability, T/C [15]: 57.2% | viability, T/C [16]: 33.4% | viability, T/C [17]: 19.2% | viability, T/C [18]: 17.3% | viability, T/C [19]: 89.6% | viability, T/C [20]: 92.6% | viability, T/C [21]: 50.1% | viability, T/C [22]: 43.1% | viability, T/C [23]: 21.2% | viability, T/C [24]: 17.4% | viability, T/C [25]: 83.3% | viability, T/C [26]: 84.2% | viability, T/C [27]: 58.2% | viability, T/C [28]: 38.7% | viability, T/C [29]: 22.8% | viability, T/C [30]: 21.6% | viability, T/C [31]: 87.6% | viability, T/C [32]: 84.5% | viability, T/C [33]: 48.3% | viability, T/C [34]: 40.3% | viability, T/C [35]: 23.7% | viability, T/C [36]: 22.8%

CC(C)(O)C1CCC(Nc2ccc3ncc(-c4cccc(C(F)(F)F)c4)n3n2)CC1 (stereo unspecified) + Cc1[nH]c2ccc(F)cc2c1-c1nc2c3cccnc3c3ncccc3c2[nH]1
IC50 (second compound 0.0316 µM): > 10000 nM | IC50 (second compound 0.1 µM): > 10000 nM | IC50 (second compound 0.316 µM): > 10000 nM | IC50 (second compound 1 µM): > 10000 nM | IC50 (second compound 3.16 µM): > 10000 nM | IC50 (second compound 10 µM): 2550 nM | viability, T/C [1]: 112% | viability, T/C [2]: 109% | viability, T/C [3]: 124% | viability, T/C [4]: 97.2% | viability, T/C [5]: 70.1% | viability, T/C [6]: 111% | viability, T/C [7]: 115% | viability, T/C [8]: 98.2% | viability, T/C [9]: 93.5% | viability, T/C [10]: 103% | viability, T/C [11]: 73.4% | viability, T/C [12]: 111% | viability, T/C [13]: 108% | viability, T/C [14]: 117% | viability, T/C [15]: 115% | viability, T/C [16]: 109% | viability, T/C [17]: 82.7% | viability, T/C [18]: 99.4% | viability, T/C [19]: 85.2% | viability, T/C [20]: 109% | viability, T/C [21]: 110% | viability, T/C [22]: 104% | viability, T/C [23]: 68.2% | viability, T/C [24]: 105% | viability, T/C [25]: 93% | viability, T/C [26]: 102% | viability, T/C [27]: 97% | viability, T/C [28]: 88% | viability, T/C [29]: 51% | viability, T/C [30]: 65.3% | viability, T/C [31]: 105% | viability, T/C [32]: 95.9% | viability, T/C [33]: 103% | viability, T/C [34]: 88% | viability, T/C [35]: 35.1% | viability, T/C [36]: 47.6%
